Results as given in article PMC6669322, “Small Molecule Binding to Alzheimer Risk Factor CD33 Promotes Aβ Phagocytosis” (iScience, 2019).

Biological target: T1, CD33 S131A (Homo sapiens, UniProt P20138, S131A)
T1 construct: human CD33 ORF (NM_001772.3), lacking its signal peptide; expressed in transfected cells; host or cells: HEK293T, transient, pT8-SNAP vector
Experiment: SNAP-tag homogeneous time-resolved fluorescence binding assay, CD33 S131A
Conditions: S131 mutated to alanine, in words
Experimental: We then used our structural data to design mutations of key residues interacting with P22 to assess which interactions were the most important for binding affinity. The residues were mutated into alanine, and the effect of these mutations on P22 binding affinity was assessed using a SNAP-tag homogeneous time-resolved fluorescence binding assay (see Transparent Methods and Figures 3E–3G). The R119A mutation, which destroys the salt bridge between P22 and CD33, was one of the most detrimental to binding (>30-fold loss) (Figure 2C and Table S4). […]
HEK293T cells were cultured in DMEM (ThermoFisher Scientific # 11965092) containing 10% FBS (Hyclone # SH30070.03) and 1% Penicillin-Streptomycin (ThermoFisher Scientific # 15140122) and transfected using Fugene HD (Promega # E2312) in 10 cm plates. […] The cells were counted, centrifuged and resuspended in PBS at a concentration of 1,000 cells/μL and 10 μL were plated into each well. […] Non-specific binding was assessed by competition with 100 μM of the non-labeled P22, as well as in control (Snap-tagged dopamine D2R receptor)-transfected cells.
Fluorescence was read with a PHERAstar plate reader using an excitation of 337 nm and emissions of 620 and 665 nm. […]

T1 sequence (P20138 18-364 S131A): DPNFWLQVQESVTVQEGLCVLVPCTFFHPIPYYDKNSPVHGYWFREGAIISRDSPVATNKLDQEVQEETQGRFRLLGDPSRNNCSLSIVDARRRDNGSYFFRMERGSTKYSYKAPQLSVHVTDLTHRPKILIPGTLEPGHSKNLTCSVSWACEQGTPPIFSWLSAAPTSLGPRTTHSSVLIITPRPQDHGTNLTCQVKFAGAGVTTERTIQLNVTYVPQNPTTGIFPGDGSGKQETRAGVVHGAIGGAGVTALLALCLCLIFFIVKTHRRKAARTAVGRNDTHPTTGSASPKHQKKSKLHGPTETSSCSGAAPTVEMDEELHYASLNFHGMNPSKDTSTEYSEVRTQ

impact of mutation on P22 binding affinity: little to no significant impact
SMILES: Cc1cc(C(=O)NC[C@@H](O)[C@@H](O)[C@@H]2O[C@@](OC[C@H]3O[C@@H](O[C@H]4[C@H](O)[C@@H](O)[C@H](OCCN)O[C@@H]4CO)[C@H](O)[C@@H](O)[C@H]3O)(C(=O)O)C[C@H](O)[C@H]2NC(=O)Cn2cc(C3CCCCC3)nn2)cc(C)c1O [P22, β-D-Glucopyranoside, 2-aminoethyl O-[N-[2-(4-cyclohexyl-1H-1,2,3-triazol-1-yl)acetyl]-9-deoxy-9-[(4-hydroxy-3,5-dimethylbenzoyl)amino]-α-neuraminosyl] (2→6)-O-β-D-galactopyranosyl-(1→4)-]
